# Measurements as given in ChEMBL document CHEMBL3525948, “Quantitative prediction of CYP2B6 induction by estradiol during pregnancy: potential explanation for increased methadone clearance during pregnancy” (Drug Metab Dispos, 2013).
# Tests used:
# CYP2B6 = target: T1, CYP2B6 (Homo sapiens, UniProt P20813); assay: Induction of CYP2B6 activity in human donor hepatocytes assessed as hydroxybupropion formation after 48 hrs by LC/MS method; type: ADME, cell-based, Hepatocyte; settings: probe bupropion (hydroxybupropion formation measured)
# T1 sequence (P20813 whole entry): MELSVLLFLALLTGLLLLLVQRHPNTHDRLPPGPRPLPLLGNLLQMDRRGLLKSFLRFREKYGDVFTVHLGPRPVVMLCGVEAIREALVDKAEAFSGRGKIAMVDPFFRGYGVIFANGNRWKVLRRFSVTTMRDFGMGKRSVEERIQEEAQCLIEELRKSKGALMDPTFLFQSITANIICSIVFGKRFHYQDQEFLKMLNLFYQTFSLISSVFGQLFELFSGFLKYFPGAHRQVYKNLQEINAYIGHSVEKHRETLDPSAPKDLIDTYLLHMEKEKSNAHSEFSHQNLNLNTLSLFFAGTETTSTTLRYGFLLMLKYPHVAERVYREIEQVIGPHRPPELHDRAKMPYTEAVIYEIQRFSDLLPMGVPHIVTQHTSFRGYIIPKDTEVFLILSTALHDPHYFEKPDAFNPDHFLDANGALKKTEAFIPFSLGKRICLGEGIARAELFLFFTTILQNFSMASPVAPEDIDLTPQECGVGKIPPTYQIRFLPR
# Hepatocyte = assay: Induction of CYP2B6 mRNA expression in human donor hepatocytes after 48 hrs by real-time PCR method; type: ADME, cell-based
SMILES,EC50 at 48 h (CYP2B6) [µM],EC50 (Hepatocyte) [µM]
NC(=O)N1c2ccccc2C=Cc2ccccc21 [CARBAMAZEPINE],145,26
C[C@]12CC[C@@H]3c4ccc(O)cc4CC[C@H]3[C@@H]1CC[C@@H]2O [ESTRADIOL],4.1,1.9
CO[C@H]1/C=C/O[C@@]2(C)Oc3c(C)c(O)c4c(O)c(c(/C=N/N5CCN(C)CC5)c(O)c4c3C2=O)NC(=O)/C(C)=C\C=C\[C@H](C)[C@H](O)[C@@H](C)[C@@H](O)[C@@H](C)[C@H](OC(C)=O)[C@@H]1C [RIFAMPIN],1.3,0.98
